# Results from publication PMC11372076, “A dual inhibitor of PIP5K1C and PIKfyve prevents SARS-CoV-2 entry into cells” (Experimental & Molecular Medicine, 2024).
# Legend:
# [1] = tested on: SARS-CoV-2; assay: microbe, parasite or virus in culture; format: cell-based, SARS-CoV-2 (hCoV-19/Korea/KCDC06/2020); conditions: for EC50: Severe acute respiratory syndrome coronavirus 2, Vero, 48 h, read-out: EC50 (reducing number of spike-positive cells by 50%); for selectivity index (SI), ratio of CC50 to EC50: Vero cells, Day 2
# [2] = tested on: SARS-CoV-2; format: cell-based
# [3] = tested on: Vero cells; assay: Endosomal pH change test with acridine orange; format: cell-based; conditions: 1 µM for 1 h
# Method: This image-based experiment was performed according to our previous report with some modifications. Vero cells were cultured in a glass bottom 35 mm dish (6 × 10^4 cells per well) overnight. Each compound, including 1 µM UNC3230, apilimod or UNI418, was added to Vero cells for 1 h at 37 °C. The cells were stained with acridine orange (Sigma‒Aldrich, A9231) at a final concentration of 4 µg/mL for 30 min. After washing with PBS twice, images were acquired using a confocal microscope (Zeiss LSM 700, Baden-Württemberg, Germany) at two emission wavelengths, 493 to 560 nm and 590 to 720 nm, with excitation at 488 nm. The green-to-red ratio or vacuole size was measured using the built-in software ZEN 3.1.
# Fig. 3 UNI418 negatively affects autophagosome-lysosome fusion and endosome acidification. a Live-cell imaging of HEK293T cells stably expressing mCherry-GFP-LC3 treated with 0.5 μM UNI418 at the indicated time points; the images within the white rectangular boxes are magnified on the right side. Scale bar, 30 µm. The number (b) and area (c) of GFP-positive dots per cell were quantified by ImageXpress. d Immunofluorescence images illustrating the inhibition of endolysosomal acidification by UNI418. Vero cells were treated with the mock control or 1 µM UNC3230, apilimod or UNI418 for 1 h at 37 °C. Acridine orange (4 µg/mL) was added to the compound-treated live cells, followed by additional incubation for 30 min. The cells were analyzed by confocal microscopy using two emission wavelengths at 493–560 (green) and 590–720 nm (red) after excitation at 488 nm. Merged images are presented, and images within the white rectangular boxes are magnified on the right side. Original magnification, 630×. The green-to-red fluorescence intensity ratio (e) and the area of fluorescent spots (f) were quantified. b, c, e, f The data are presented as the means ± SEMs, with a minimum of 200 spots. Statistical significance was determined by Student’s t test; *p < 0.05, **p < 0.01, ***p < 0.001 and ****p < 0.0001. n.s., not significant.
# [4] = tested on: Wuhan-Hu-1 spike-pseudotyped virus; assay: microbe, parasite or virus in culture; format: cell-based, SARS-CoV-2
# [5] = tested on: ACE2-mediated endocytosis in HEK293T cells; format: cell-based; conditions: 0.5 μM compound, 20 μg/mL spike-RBD, 2 h
# [6] = tested on: RPE1 cells; assay: Western blot of autophagy-monitoring proteins SQSTM1/p62 and LC3-II; format: cell-based
# Text: Fig. 2 UNI418 inhibits autophagy. a Western blot analysis of p62, LC3B-I, LC3B-II and GAPDH in the presence of UNC3230, apilimod and UNI418. b Immunofluorescence staining with LC3B (green) and p62 (red) antibodies upon treatment with UNC3230, apilimod and UNI418, and images within the white rectangular boxes are magnified on the right side. Scale bar, 20 µm. c The area of fluorescence intensity from immunofluorescence images (b) was quantified after UNC3230, apilimod and UNI418 treatments. d, e Quantification of autophagic flux under normal conditions and under HBSS-induced starvation conditions with or without UNI418 treatment. RPE1 cells were treated with UNI418 (0.5 µM or 1 µM) for 2 h in the presence or absence of a lysosomal inhibitor (bafilomycin A1, BFA). Representative Western blot images (d) and the graph showing the average of 4 independent experiments (e). The error bars indicate the S.D. Statistical analysis was performed using two-way ANOVA; *p < 0.05, ***p < 0.001.
# Supplementary Materials and Methods
# The whole cell extracts were prepared by lysis of harvested cells with M -PER Mammalian protein extraction reagent (Thermo Fisher Scientific). The protein concentrations were determined by Bradford protein assay (Bio- Rad). The 10 to 20 μ g of prepared proteins were separated by the SDS-PAGE and transferred to PVDF membrane, which were then blocked in 5% skim milk for 30 minutes at room temperature. […] The images were obtained and quantified by Fusion solo ChemiDoc system (Vilber).
# Autophagic flux assay was analyzed essentially as previously described1,2.
# Briefly, RPE1 cells were treated with UNI418 (0, 0.5, or 1 µM) for 2 h with/without bafilomycin A1 to inhibit lysosomal degradation under normal growth media or HBSS. […] The LC3- II bands were quantified using Fusion Solo ChemiDoc system (Vilber) and normalized to GAPDH bands.
# Autophagy flux was calculated by subsidizing the lysosomal inhibitor-treated cells to non- treatment cells in both normal growth media and HBSS-induced starvation with 0, 0.5, or 1 µM UNI418. […]
# [7] = tested on: cathepsin D; assay: Cathepsin D maturation by Western blot; format: cell-based
# [8] = in vitro; conditions: African green monkey
SMILES,EC50 [1],"selectivity index (SI), ratio of CC50 to EC50 [1]",reduction in the levels of the viral NP gene (viral genome copies) [2],green-to-red ratio of fluorescent spots relative to mock-treated sample [3],pseudotyped virus entry [4],ACE2-mediated endocytosis triggered by spike-RBD [5],accumulation of SQSTM1/p62 and LC3-II [6],proteolytic cleavage (maturation) of cathepsin D [7],CC50 [8],"IC50 ([4]; Severe acute respiratory syndrome coronavirus 2, 293T/ACE2, read-out: concentration that inhibited spike-mediated viral entry by 50% compared to maximal inhibition)"
"c1ccc(-c2cc(Nc3nc(-c4ccncc4)nc4ccccc34)n[nH]2)cc1 [UNI418, N -(5-phenyl-1 H -pyrazol-3-yl)-2-(4-pyridinyl)-4-quinazolinamine]",1.4 µM,45.6,approximately 2 log,6.3 fold,markedly inhibited,successfully inhibited,strongly induced,considerably inhibited,62.3 µM,–
Cc1cccc(/C=N/Nc2cc(N3CCOCC3)nc(OCCc3ccccn3)n2)c1 [apilimod],0.3 µM,272.6,approximately 2 log,2.2 fold,–,did not obviously inhibit,strongly induced,largely inhibited,73.6 µM,0.005 µM
